Measurements as given in PubChem BioAssay (NCI).
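Growth conditions: 96-well plates. Treatment: test compound, 48 hours, 5 concentrations. Analysis: linear interpolation between bracketing concentrations; unreached endpoints set to highest concentration. TGI marks complete inhibition of growth.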

Key:
Experiment in all cases: NCI tumour cell line growth inhibition, 48 h
DLD-1 colon = test system: DLD-1 colon
LXFL 529 NSCLC = test system: LXFL 529 NSCLC
SNB-78 CNS = test system: SNB-78 CNS
XF 498 CNS = test system: XF 498 CNS
HOP-18 NSCLC = test system: HOP-18 NSCLC
P388 leukemia = test system: P388 leukemia
P388/ADR leukemia = test system: P388/ADR leukemia
SN12K1 renal = test system: SN12K1 renal
RXF-631 renal = test system: RXF-631 renal

SMILES | TGI (DLD-1 colon) [µM] | TGI (LXFL 529 NSCLC) [µM] | TGI (SNB-78 CNS) [µM] | TGI (XF 498 CNS) [µM] | TGI (HOP-18 NSCLC) [µM] | TGI (P388 leukemia) [µM] | TGI (P388/ADR leukemia) [µM] | TGI (SN12K1 renal) [µM] | TGI (RXF-631 renal) [µM]
CC(C)(C)C(=O)OCC1OC(N=[N+]=[N-])C(OC(=O)C(C)(C)C)C(OC(=O)C(C)(C)C)C1OC(=O)C(C)(C)C (stereo unspecified) | > 100 | > 100 | > 100 | > 100 | – | – | – | – | –
Cc1ccc(N(O)C(C)(C)C)cc1 | > 100 | – | – | > 100 | > 100 | > 100 | > 100 | > 100 | –
CC(=O)NNc1nc(C)c(C(=O)NNC(=O)C(=O)Nc2cccc(C(C)=O)c2)s1 | 98.9 | – | > 100 | 30.6 | – | – | – | – | 68.3
CC(C)OP(=O)(OC(C)C)C1=NN(c2ccc([N+](=O)[O-])cc2)C(P(=O)(OC(C)C)OC(C)C)=NN1c1ccc([N+](=O)[O-])cc1 | > 100 | > 100 | – | > 100 | > 100 | – | – | – | –
C[S+](C)CC1OC(n2cnc3c(N)ncnc32)C(O)C1O (stereo unspecified) | > 225 | – | > 225 | > 225 | – | > 225 | > 22.5 | > 225 | –
CN(C)CCNC(=O)c1cccc2cc3cc(O)ccc3nc12 | 4.88 | – | 18.2 | 2.51 | 3.83 | 1.25 | 2.33 | 2.66 | –
COc1ccc2nc3c(c(NCCCN(C)C)c2c1)CCCC3 | 28.4 | 28.7 | 21.4 | 20.4 | – | – | – | – | 28.7
Cc1ccc(Sc2ccccc2[N+](=O)[O-])cc1 | > 100 | > 100 | 95.4 | – | > 100 | – | – | – | –
O=NN(CCF)C(=O)NC1CC2CCC1C2 (stereo unspecified) | > 100 | – | > 100 | – | > 100 | 50.3 | > 100 | > 100 | –
CCOC(=O)c1cc2c(OCc3ccccc3)c(OC)cc3c2c(n1)N(c1ccc(OC)cc1)C(C)C3 (stereo unspecified) | > 50 | > 50 | – | > 50 | > 50 | – | – | – | –
O=c1c2ccccc2nc(-c2ccccc2)n1NC(=S)Nc1ccc(Cl)cc1 | > 100 | > 100 | – | – | > 100 | – | – | – | –
CCC(COC(=O)CC[C@@H](NC(=O)C(C)NC(=O)C(C)OC1C(O)C(CO)OC(OCc2ccccc2)C1NC(C)=O)C(N)=O)NC1c2ccccc2Nc2cccc([N+](=O)[O-])c21 (stereo partly specified) | > 100 | > 100 | > 100 | > 100 | > 100 | – | – | – | –
Cc1cn(C2CC(CCCO)C(CO)O2)c(=O)[nH]c1=O (stereo unspecified) | > 100 | > 100 | – | > 100 | – | – | – | – | –
COc1cccc(/C(Cl)=C(\C=O)c2cccc(OC)c2)c1 | 29.1 | 20.9 | 30 | 27.1 | 41.9 | – | – | – | –
